{"source": "paper PMC12066474", "about": "“Ex vivo quantification of intracellular pH in Drosophila Malpighian tubule reveals basolateral HCO3 ^−/oxalate exchange through a novel oxalate transporter “Neat”” (Frontiers in Physiology, 2025)", "target": "T1, Neat (CG5002) (Drosophila melanogaster, UniProt Q7K4I4)", "T1 construct": "coding region in pGEMHE, cRNA expressed in Xenopus laevis oocytes", "T1 sequence (Q7K4I4 1-595)": "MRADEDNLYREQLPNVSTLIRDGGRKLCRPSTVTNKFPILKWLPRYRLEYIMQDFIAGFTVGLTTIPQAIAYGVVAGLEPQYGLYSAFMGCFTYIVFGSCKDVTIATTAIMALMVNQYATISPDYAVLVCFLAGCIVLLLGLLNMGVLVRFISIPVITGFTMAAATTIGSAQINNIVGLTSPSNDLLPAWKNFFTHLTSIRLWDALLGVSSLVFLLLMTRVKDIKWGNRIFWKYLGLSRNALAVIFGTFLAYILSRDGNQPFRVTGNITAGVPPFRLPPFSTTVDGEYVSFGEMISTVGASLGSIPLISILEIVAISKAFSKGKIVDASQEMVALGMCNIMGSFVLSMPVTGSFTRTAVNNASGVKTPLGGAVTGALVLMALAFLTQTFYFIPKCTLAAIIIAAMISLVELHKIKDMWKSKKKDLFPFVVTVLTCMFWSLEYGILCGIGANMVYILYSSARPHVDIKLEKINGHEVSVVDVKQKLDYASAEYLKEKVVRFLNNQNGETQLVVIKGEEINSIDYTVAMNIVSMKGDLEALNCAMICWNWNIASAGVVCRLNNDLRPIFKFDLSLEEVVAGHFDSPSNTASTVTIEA", "type": "cell-based", "details": "5% CO2/33 mM HCO3−, pH 7.5", "data": [{"smiles": "O=C(O)O", "note": "[HCO3 ^−]", "values": [{"measurement": "intracellular pH microelectrode in Xenopus oocytes", "value": "Neat demonstrated electroneutral HCO3 ^− influx in the presence of HCO3 ^−/CO2 buffered saline"}]}]}
